The text below walks through data of doi:10.1101/2023.11.24.568596v1 (biorxiv, 2023).

Holding throughout (details): binder
The target in assay [1] is CaMK2b (Homo sapiens, UniProt Q13554).
In assay [2] the target is ABL1 (Homo sapiens, UniProt P00519).
Assay [3] addresses MAPKAPK2 (Homo sapiens, UniProt P49137).
Assay [4] addresses OSR1 (Homo sapiens, UniProt O95747).
The target in assay [5] is AAK1 (Homo sapiens, UniProt Q2M2I8).
Assay [6] addresses GSK3B (Homo sapiens, UniProt P49841).
Assay [7] concerns the target CK2a1 (Homo sapiens, UniProt P68400).
For assay [8], the target named is T1, AurA (Homo sapiens, UniProt O14965).
T1 sequence (O14965 1-403): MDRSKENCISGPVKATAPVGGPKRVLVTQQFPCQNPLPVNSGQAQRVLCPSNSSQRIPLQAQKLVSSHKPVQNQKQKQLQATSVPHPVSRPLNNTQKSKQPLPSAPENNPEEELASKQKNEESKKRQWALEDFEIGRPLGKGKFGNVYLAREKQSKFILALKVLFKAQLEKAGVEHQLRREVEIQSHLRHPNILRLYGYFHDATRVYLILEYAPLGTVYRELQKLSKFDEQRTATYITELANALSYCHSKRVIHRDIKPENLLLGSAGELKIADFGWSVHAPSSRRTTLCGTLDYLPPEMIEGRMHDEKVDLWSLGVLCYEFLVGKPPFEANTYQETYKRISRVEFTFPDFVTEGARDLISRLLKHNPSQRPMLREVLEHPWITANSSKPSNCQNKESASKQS

Assay [9] concerns the target LOK (Homo sapiens, UniProt O94804).
The target in assay [10] is CHK2 (Homo sapiens, UniProt O96017).
Assay [11] deals with CaMK1g (Homo sapiens, UniProt Q96NX5).
Chain of CaMK1g (Q96NX5 whole entry): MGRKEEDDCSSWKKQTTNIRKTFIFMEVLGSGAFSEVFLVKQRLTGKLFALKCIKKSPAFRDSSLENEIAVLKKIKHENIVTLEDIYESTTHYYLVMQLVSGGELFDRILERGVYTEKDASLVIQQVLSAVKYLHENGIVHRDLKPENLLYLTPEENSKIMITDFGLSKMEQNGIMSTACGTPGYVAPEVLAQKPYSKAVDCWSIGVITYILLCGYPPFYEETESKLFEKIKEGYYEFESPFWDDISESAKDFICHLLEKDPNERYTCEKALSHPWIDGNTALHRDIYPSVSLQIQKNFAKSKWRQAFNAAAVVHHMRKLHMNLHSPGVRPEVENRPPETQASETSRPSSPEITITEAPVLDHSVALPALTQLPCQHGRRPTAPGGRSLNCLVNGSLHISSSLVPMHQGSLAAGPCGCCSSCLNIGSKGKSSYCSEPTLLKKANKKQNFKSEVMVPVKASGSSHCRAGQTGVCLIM
The target in assay [12] is BRAF (Homo sapiens, UniProt P15056).
Chain of BRAF (P15056 whole entry): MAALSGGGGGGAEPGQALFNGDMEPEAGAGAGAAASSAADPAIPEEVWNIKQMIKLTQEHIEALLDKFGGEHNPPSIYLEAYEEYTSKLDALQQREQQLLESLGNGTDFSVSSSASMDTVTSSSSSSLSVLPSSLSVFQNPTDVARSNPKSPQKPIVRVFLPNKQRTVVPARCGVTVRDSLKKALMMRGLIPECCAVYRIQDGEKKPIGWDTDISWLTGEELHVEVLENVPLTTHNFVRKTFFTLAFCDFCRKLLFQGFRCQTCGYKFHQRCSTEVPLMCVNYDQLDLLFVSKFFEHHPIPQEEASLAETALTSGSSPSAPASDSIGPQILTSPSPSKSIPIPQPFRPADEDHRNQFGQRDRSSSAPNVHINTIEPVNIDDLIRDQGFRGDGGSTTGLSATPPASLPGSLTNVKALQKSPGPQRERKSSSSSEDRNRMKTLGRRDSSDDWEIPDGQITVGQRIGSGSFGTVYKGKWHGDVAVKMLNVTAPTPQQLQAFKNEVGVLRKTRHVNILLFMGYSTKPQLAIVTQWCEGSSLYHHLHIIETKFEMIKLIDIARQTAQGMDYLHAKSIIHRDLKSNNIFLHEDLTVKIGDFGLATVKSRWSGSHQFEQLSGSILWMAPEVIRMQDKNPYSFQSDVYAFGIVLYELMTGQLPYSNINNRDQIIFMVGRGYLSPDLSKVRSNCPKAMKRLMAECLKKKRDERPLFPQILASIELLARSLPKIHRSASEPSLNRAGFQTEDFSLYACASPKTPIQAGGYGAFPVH
Assay [13] addresses T2, CASK (Homo sapiens, UniProt O14936).
T2 sequence (O14936 1-926): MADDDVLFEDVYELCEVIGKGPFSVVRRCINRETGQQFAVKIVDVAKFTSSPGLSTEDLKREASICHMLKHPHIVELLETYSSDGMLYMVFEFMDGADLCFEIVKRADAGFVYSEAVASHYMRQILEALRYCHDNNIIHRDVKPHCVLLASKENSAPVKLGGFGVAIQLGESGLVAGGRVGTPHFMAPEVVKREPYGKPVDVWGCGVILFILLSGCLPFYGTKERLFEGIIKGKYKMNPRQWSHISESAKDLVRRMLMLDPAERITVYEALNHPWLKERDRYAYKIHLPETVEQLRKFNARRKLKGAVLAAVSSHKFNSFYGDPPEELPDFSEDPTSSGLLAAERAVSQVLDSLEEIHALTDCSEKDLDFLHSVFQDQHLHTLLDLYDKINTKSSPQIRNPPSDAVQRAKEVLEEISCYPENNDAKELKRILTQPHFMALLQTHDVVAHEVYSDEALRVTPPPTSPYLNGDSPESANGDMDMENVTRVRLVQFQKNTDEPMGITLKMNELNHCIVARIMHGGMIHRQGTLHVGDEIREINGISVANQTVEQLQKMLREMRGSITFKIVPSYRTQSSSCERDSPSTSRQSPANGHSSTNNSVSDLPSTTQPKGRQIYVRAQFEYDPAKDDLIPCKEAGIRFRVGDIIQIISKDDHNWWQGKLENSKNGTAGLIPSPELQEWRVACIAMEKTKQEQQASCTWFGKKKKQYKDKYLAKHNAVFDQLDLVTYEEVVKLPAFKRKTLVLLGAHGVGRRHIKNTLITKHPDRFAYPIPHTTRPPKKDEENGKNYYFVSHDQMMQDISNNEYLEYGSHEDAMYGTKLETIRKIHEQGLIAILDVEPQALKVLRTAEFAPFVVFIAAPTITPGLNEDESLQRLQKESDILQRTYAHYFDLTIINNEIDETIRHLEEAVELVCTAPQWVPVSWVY

Chain of MAPKAPK2 (P49137 whole entry): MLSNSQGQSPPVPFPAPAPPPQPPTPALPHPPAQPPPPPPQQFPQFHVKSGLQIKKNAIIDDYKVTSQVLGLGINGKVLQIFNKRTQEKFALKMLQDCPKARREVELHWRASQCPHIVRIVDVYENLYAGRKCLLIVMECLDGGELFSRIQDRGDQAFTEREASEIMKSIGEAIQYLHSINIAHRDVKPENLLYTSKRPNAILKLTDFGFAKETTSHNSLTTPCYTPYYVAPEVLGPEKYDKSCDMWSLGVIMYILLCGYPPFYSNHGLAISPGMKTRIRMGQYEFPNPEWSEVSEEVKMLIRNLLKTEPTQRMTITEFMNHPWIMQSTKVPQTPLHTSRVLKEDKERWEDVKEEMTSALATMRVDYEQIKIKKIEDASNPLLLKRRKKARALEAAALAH
Chain of CaMK2b (Q13554 whole entry): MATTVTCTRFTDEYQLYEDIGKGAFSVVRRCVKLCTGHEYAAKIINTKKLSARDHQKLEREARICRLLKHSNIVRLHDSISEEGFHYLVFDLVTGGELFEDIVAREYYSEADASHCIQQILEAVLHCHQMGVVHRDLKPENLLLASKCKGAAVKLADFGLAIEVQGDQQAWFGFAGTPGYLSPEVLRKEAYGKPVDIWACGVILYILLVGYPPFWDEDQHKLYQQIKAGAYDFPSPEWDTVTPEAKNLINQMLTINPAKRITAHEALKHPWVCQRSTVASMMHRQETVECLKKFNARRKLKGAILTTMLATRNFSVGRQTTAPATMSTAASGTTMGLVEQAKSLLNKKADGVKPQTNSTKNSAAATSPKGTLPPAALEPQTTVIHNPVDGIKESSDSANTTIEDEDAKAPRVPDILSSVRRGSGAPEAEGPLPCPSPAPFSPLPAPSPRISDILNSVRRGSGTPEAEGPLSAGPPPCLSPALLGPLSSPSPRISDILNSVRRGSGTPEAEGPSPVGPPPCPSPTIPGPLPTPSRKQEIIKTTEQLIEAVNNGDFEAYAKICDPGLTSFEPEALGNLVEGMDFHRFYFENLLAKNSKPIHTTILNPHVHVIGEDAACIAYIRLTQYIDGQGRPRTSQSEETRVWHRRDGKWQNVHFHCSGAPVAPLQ
Chain of AAK1 (Q2M2I8 whole entry): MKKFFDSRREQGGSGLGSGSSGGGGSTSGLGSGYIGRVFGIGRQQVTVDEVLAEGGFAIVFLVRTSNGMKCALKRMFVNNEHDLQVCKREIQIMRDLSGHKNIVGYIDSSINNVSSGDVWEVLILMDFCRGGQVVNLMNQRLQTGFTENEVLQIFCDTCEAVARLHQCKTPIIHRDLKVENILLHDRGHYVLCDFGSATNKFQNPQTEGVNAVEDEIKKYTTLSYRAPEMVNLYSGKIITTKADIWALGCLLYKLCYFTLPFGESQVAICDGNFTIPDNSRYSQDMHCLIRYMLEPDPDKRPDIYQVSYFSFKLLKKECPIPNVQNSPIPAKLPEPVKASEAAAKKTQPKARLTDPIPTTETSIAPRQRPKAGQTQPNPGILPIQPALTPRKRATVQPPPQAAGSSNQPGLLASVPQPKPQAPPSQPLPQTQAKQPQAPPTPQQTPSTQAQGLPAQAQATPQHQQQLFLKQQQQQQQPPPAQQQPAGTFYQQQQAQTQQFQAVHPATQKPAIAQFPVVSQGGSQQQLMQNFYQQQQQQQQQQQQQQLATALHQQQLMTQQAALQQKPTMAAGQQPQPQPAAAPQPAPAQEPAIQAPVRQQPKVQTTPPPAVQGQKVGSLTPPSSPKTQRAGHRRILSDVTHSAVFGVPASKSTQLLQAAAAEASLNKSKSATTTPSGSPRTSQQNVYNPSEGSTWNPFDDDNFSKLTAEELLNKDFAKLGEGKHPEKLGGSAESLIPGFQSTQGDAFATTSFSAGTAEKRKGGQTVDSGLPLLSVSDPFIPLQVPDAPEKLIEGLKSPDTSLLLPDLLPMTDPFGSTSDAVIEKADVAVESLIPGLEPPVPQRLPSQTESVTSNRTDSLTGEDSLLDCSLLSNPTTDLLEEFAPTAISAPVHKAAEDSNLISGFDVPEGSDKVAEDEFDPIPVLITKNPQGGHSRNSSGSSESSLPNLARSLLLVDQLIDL
Chain of CK2a1 (P68400 whole entry): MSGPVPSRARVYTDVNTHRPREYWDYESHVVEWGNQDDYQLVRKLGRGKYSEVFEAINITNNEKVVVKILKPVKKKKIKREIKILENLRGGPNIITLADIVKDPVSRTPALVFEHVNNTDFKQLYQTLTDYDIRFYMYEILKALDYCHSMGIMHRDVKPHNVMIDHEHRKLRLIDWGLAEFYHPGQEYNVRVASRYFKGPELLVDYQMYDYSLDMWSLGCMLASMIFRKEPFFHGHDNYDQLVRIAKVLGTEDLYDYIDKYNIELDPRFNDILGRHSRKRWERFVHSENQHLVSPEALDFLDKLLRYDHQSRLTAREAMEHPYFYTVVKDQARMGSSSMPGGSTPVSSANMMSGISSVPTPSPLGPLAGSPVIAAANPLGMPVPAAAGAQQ
Chain of OSR1 (O95747 whole entry): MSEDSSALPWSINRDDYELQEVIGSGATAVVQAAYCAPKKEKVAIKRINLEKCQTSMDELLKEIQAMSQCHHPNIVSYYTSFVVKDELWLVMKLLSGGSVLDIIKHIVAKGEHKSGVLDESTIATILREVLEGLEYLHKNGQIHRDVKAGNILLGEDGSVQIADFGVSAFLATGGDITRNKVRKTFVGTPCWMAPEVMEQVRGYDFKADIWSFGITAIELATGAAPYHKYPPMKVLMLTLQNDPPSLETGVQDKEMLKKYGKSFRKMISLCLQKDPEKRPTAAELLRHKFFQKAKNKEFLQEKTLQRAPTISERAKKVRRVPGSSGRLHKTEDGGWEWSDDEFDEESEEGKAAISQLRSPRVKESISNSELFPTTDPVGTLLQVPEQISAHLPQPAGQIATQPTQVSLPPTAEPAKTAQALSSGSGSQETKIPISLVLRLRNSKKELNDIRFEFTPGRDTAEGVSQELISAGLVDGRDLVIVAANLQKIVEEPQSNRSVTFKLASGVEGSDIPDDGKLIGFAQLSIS
Chain of GSK3B (P49841 whole entry): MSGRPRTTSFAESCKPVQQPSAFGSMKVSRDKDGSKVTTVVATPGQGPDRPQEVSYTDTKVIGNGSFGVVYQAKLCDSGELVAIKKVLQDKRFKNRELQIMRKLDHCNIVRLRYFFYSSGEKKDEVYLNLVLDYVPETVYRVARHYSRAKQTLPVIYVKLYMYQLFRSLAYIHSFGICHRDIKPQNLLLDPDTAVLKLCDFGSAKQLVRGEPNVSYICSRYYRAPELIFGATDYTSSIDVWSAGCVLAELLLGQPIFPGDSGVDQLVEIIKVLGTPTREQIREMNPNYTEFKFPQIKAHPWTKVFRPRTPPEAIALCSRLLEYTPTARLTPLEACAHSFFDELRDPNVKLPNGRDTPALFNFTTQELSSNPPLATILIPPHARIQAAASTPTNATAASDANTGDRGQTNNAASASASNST

For `Cc1cccc(-c2ccc(-c3cc4cnc(NCCCc5ccc(N)cc5)nc4n(CCCCN)c3=O)c(Cl)c2)n1` [compound 25, 8-(4-Aminobutyl)-2-((3-(4-aminophenyl)propyl)amino)-6-(2-chloro-4-(6-methylpyridin-2-yl)phenyl)pyrido[2,3-d]pyrimidin-7(8H)-one], the “ΔTm 25” value was -0.1 °C in assay [1]; 3.9 °C in assay [2]; -0.6 °C in assay [3]; 0.4 °C in [4]; 0.8 °C in assay [5]; 3.8 °C in assay [6]. For the same compound, the “ΔTm 25” value in [7] is -0.4 °C; in assay [8], 1.8 °C; in assay [9] it was -0.7 °C; in assay [10] it was 8.5 °C; in [11] it was 6.5 °C; in [12], 5.2 °C. Moreover, the “ΔTm 25” value in assay [13] is -0.4 °C.
`CNc1ncc2cc(-c3ccc(-c4cccc(C)n4)cc3Cl)c(=O)n(C[C@H]3CC[C@H](N)CC3)c2n1` [compound 23, 23]: the “ΔTm 23” value in assay [1] is 0.2 °C; in [2] it was 7.9 °C; in assay [3] it was -0.9 °C; in assay [4], 2.3 °C; in assay [5], 3.3 °C; in assay [6] it was 1.7 °C. For the same compound, the “ΔTm 23” value was -0.4 °C in [7]; 13.1 °C in [8]; 13.0 °C in [9]; 4.6 °C in [10]; 9.5 °C in assay [11]; 6.2 °C in assay [12]. In [13], the “ΔTm 23” value is -0.4 °C.
`CNc1ncc2cc(-c3ccc(-c4cccc(C)n4)cc3Cl)c(=O)n(CCCCN)c2n1` [compound 20, MRLW5]: the “ΔTm MRLW5 (20)” value in assay [1] is -1.3 °C; in assay [2], 4.9 °C; in assay [3], 0.0 °C; in [4] it was 1.6 °C; in [5], 1.4 °C; in [6], 1.8 °C. The “ΔTm MRLW5 (20)” value is -0.2 °C in assay [7]; 11.8 °C in [8]; 12.5 °C in assay [9]; 2.8 °C in [10]; 3.9 °C in [11]; 4.1 °C in [12]. In addition, in assay [13], the “ΔTm MRLW5 (20)” value was -0.5 °C.
Consider `CNc1ncc2cc(-c3ccc(-c4cccc(C)n4)cc3Cl)c(=O)n(CCC3CCNCC3)c2n1` [compound 22, 6-(2-Chloro-4-(6-methylpyridin-2-yl)phenyl)-2-(methylamino)-8-(2-(piperidin-4-yl)ethyl)pyrido[2,3-d]pyrimidin-7(8H)-one], for which the “ΔTm 22” value in assay [1] was -0.9 °C; in assay [2], 4.9 °C; in [3], -0.1 °C; in [4], 0.7 °C; in [5], 2.8 °C; in assay [6], 1.3 °C. Moreover, the “ΔTm 22” value was -0.6 °C in assay [7]; 11.4 °C in assay [8]; 11.4 °C in assay [9]; 3.0 °C in assay [10]; 5.1 °C in [11]; 6.3 °C in assay [12]. For the same compound, in assay [13], the “ΔTm 22” value is 0.3 °C.
On to `Cc1cccc(-c2ccc(-c3cc4cnc(NC(CO)CO)nc4n(CCCCN)c3=O)c(Cl)c2)n1` [compound 24, 8-(4-Aminobutyl)-6-(2-chloro-4-(6-methylpyridin-2-yl)phenyl)-2-((1,3-dihydroxypropan-2-yl)amino)pyrido[2,3-d]pyrimidin-7(8H)-one], for which the “ΔTm MR24 (24)” value was -0.8 °C in assay [1]; 1.4 °C in assay [2]; -0.1 °C in [3]; -0.5 °C in assay [4]; -0.4 °C in assay [5]; 0.0 °C in assay [6]. For the same compound, the “ΔTm MR24 (24)” value in [7] is 0.0 °C; in assay [8] it was -1.7 °C; in assay [9], -0.6 °C; in assay [10] it was 2.0 °C; in assay [11] it was 1.4 °C; in [12] it was 1.2 °C. Besides, the “ΔTm MR24 (24)” value in assay [13] is -0.4 °C.
With `Cc1cccc(-c2ccc(-c3cc4cnc(NCCCN5CCOCC5)nc4n(CCCCN)c3=O)c(Cl)c2)n1` [compound 26, MR26], the “ΔTm MR26 (26)” value in assay [1] is -0.3 °C; in assay [2], 2.9 °C; in assay [3], -0.2 °C; in assay [4] it was -0.1 °C; in assay [5], -0.2 °C; in assay [6], 0.8 °C. Besides, the “ΔTm MR26 (26)” value is 0.6 °C in assay [7]; -0.9 °C in assay [8]; -0.4 °C in assay [9]; 3.3 °C in assay [10]; 4.3 °C in assay [11]; 1.7 °C in assay [12]. Moreover, the “ΔTm MR26 (26)” value in [13] was -0.3 °C.
